Experimental data taken from US8202835B2, “Disease treatment via antimicrobial peptides or their inhibitors” (priority 2005, dated 2012).
“Also recorded” adds a separate entry of the source. No end group written: not given here.

How the values were obtained:
[1] = system: BALB/C mice; assay: DSS induced acute colitis model of IBD, disease activity index (DAI); format: in vivo, mouse; settings: DSS treated control group average DAI 3; score 0 to 4
Protocol: BALB/C mice were induced with acute colitis by feeding dextran sulfate sodium (DSS) in drinking water for one week and synthetic cathelicidin was administered intrarectally daily during colitis induction.
Mice were induced with acute colitis by being given 3% DSS (molecular weight, 36-50 kDa) according to the method described by Liu et al. (Carcinogenesis 24:1407-1413, 2003). The 3% DSS was given in their drinking water liar 7 days (from Day 0 to Day 7). Normal control mice received tap water throughout the experiment.
Intrarectal administration of AMPs Cathelicidin mCRAMP (5 mg/Kg/day), beta-Defensin 1 (1 mg/Kg/day), beta-Defensin 3 (1 mg/Kg/day), Elafin and SLPI, CCL20 (1 mg/Kg/day), lysozyme (3 mg/Kg/day)), as well as bactericidal/permeability increasing protein (1 mg/Kg/day). The mice were divided into two groups of 10, one receiving ordinary tap water and the disease group with DSS treatment. The peptides were intrarectally administrated once daily for 10 consecutive days beginning 3 dayd before DSS treatment. The PBS control mice received equal volumes of PBS (i.e., 100 ul) intrarectally.
In all tested animals, body weight, stool consistency, and presence of gross bleeding were recorded. Disease activity index (DAI) was calculated according to the method described by Cooper et al. (Lab Invest 69:238-249, 1993.). In brief, body weight loss, stool consistency, and bleeding were scored from 0 to 4, and DAI is the combined score divided by 3.
In addition, a parallel experiment using mCRAMP (0.8 mg/Kg) administered by injection into the peritoneum 3 times a week beginning at one week before DSS treatment. In this experiment, two groups of mice (10 in each) were compared were the control group received saline during DSS treatment while the treatment group received mCRAMP (0.8 mg/Kg) intraperitonculy 3 times a week.
AMPs were applied both individually or together in combination.

[2] = system: human psoriatic skin; assay: Human in-vivo psoriatic lesion treatment; settings: blind trial; for skin psoriatic lesion, 5 days treatment: Cathelicidin 10 ug/ml applied to lesions in a human subject
Protocol: Human in-vivo psoriatic lesion treatment: Cathelicidin 10 ug/ml or human beta defensin-2 diluted in PBS containing 0.1% BSA, or buffer carrier was applied to lesions in a human subject in a blind trial.

[3] = system: BETATC beta cell line; assay: Thymidine incorporation cell proliferation assay; format: cell-based, mouse; settings: LL-37 2 microgram/ml, 3.5 days, vs PBS control
Protocol: Murine beta cell line were treated for 3.5 days with LL-37 at 2 microgram/ml (red/dark bars) and compared to PBS control ([…]). Cell proliferation was estimated by measuring [3(H)]-thymidine incorporation and was expressed as percent of control untreated cells. A representative experiment is shown.
Antimicrobial peptides (AMPs): The antimicrobial peptides human cathelicidin LL-37: […] (SEQ ID NO: 14) was obtained from AnaSpec, USA (Catalogue numbers: 61302). Cathelicidin at 2 ug/ml was added to the plate and compared with control.
Thymidine incorporation cell proliferation assay: Cell proliferation was evaluated by measuring [3(H)]-thymidine incorporation into DNA. Cells were pulsed with [3(H)]-thymidine (1 microcurie/mL, ICN, Irvine, Calif.) for 1 hour, at 37 degrees centigrade. After incubation, cells were washed 3 times with PBS, incubated for 15 minutes at room temperature in 5% trichloroacetic acid and solubilized in 1% triton X-100. The radioactivity incorporated into the cells was counted in the [3(H)]-window of a Tricarb liquid scintillation counter. Mean values were determined from measurements of triplicate samples under each experimental condition for each experiment. Thymidine incorporation was determined as number of disintegrations per minute (DPM) per mg of protein.

[4] = Infection and immunity, November 1999, p. 6084-6089; cited from earlier work

Molecule	average DAI (disease activity index) [1]	skin psoriatic lesion, 5 days treatment [2]	other results
Alpha-Defensin 6: antimicrobial peptide reported in the DSS colitis model (AFTCHCRRSCYSTEYSYGTCTVMGINHRFCCL; ends and bridges not checked; cysteine pairing not given here; UniProt Q01524 69-100, looked up)	1.8	–	–
LLGDFFRKSKEKIGKEFKRIVQRIKDFLRNLVPRTES [LL-37]	–	slight improvement	cell proliferation ([3(H)]-thymidine incorporation) [3]: significant BETATC beta cell line proliferation; also recorded: slight increase in cell proliferation; half-life in blood of humans [4]: approximately 3.4 days
SKEKIGKEFKRIVQRIKDFLRNLVPRTES (listed as Homo sapiens) [SK29, fragment cathelicidin SK29]	–	slight improvement	–
beta-Defensin 3: antimicrobial peptide tested in the DSS colitis model (GIINTLQKYYCRVRGGRCAVLSCLPKEEQIGKCSTRGRKCCRRKK; ends and bridges not checked; cysteine pairing not given here; UniProt P81534 23-67, looked up)	1.8	–	–
human beta defensin-2: Human Beta-Defensin-2 peptide purchased from Sigma-Aldrich (GIGDPVTCLKSGAICHPVFCPRRYKQIGTCGLPGTKCCKKP; ends and bridges not checked; cysteine pairing not given here; UniProt O15263 24-64, looked up) [reference compound]	1.8	–	skin psoriatic lesion, seven week course of treatment ([2]; applied to lesions in a human subject, FIG. 20): worsening of skin psoriatic legion
Alpha-Defensin 5: antimicrobial peptide reported in the DSS colitis model (peptide, UniProt Q01523 20-94, looked up, Defensin-5, antimicrobial peptide reported in the DSS colitis model) Defensin alpha 5: ESLQERADEATTQKQSGEDNQDLAISFAGNGLSALRTSGSQARATCYCRTGRCATRESLSGVCEISGRLYRLCCR	1.8	–	–
